Laboratory results as given in ChEMBL document CHEMBL5338753, “Stapled Peptides as Direct Inhibitors of Nrf2-sMAF Transcription Factors” (J Med Chem, 2023).
Activity calls are given as the source filed them. The rule behind the calls is not given here. Positions of bridges follow the written chain, without caps; N, C: chain ends. Non-standard residues stand in square brackets, D forms with d. Residues, ends and D or L forms follow the SMILES beside them. R5 = C=CCCC[C@@](C)(N)C(=O)O

Assays:
A549 [1] = assay: Synergistic antiproliferative activity against human A549 cells assessed as cell death at 1.563 uM incubated for 72 hrs in presence of 12 uM cisplatin by MTT assay (reference value: 66%); assay type: functional
A549 [2] = assay: Synergistic antiproliferative activity against human A549 cells assessed as cell death at 12.5 uM incubated for 72 hrs in presence of 12 uM cisplatin by MTT assay (reference value: 66%); assay type: functional
A549 [3] = assay: Antiproliferative activity against human A549 cells assessed as cell death at 1.563 uM incubated for 72 hrs by MTT assay relative to control; assay type: functional
HEK-293T = assay: Cytotoxicity against HEK-293T cells assessed as reduction in cell viability; assay type: toxicity, cell-based; details: human
[4] = target: T1, Nuclear factor erythroid 2-related factor 2 (Homo sapiens) (UniProt Q16236); assay: Inhibition of human Nrf2 in HEK-293T cells expressing ARE-firefly luciferase and TK-Renilla luciferase at 50 to 100 uM incubated for 16 hrs by Dual-Luciferase reporter based luminometer analysis; assay type: cell-based; details: dose 50-100 µM
T1 sequence (whole entry): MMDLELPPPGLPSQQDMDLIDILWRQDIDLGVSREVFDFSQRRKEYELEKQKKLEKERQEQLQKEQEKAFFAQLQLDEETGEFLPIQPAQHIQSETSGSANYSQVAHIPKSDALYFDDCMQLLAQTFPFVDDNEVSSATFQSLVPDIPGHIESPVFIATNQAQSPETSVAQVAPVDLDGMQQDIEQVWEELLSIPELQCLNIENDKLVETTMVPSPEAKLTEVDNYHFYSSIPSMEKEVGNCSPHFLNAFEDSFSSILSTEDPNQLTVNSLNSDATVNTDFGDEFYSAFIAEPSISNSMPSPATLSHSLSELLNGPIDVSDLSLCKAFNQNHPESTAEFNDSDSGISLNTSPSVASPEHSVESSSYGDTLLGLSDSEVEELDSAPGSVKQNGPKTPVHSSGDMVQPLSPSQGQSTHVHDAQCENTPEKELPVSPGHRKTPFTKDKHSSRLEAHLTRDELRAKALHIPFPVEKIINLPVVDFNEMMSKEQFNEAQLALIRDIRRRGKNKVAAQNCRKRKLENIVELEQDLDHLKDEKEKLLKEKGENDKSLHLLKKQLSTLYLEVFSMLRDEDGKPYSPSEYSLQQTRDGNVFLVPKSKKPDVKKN

NRF2-MAFG (Homo sapiens) = NRF2-MAFG (Homo sapiens) (UniProt Q16236+O15525); assay: Inhibition of human Nrf2/MafG heterodimerization expressed in Escherichia coli Rosetta (DE3) by Split-luciferase assay; details: dose 1.56-100 µM
A549 [5] = assay: Synergistic antiproliferative activity against human A549 cells assessed as combination index at 3.125 uM incubated for 72 hrs in presence of 12 uM cisplatin by Chou-Talalay method; assay type: functional
A549 [6] = assay: Synergistic antiproliferative activity against human A549 cells assessed as combination index at 100 uM incubated for 72 hrs in presence of 6 uM cisplatin by Chou-Talalay method; assay type: functional
[7] = Stability of compound assessed as proteinase K (unknown origin) mediated compound degradation at 55 uM measured upto 24 hrs by LC/MS analysis; assay type: ADME; details: human
A549 [8] = assay: Synergistic antiproliferative activity against human A549 cells assessed as combination index at 6.25 uM incubated for 72 hrs in presence of 12 uM cisplatin by Chou-Talalay method; assay type: functional
A549 [9] = assay: Synergistic antiproliferative activity against human A549 cells assessed as combination index at 50 uM incubated for 72 hrs in presence of 6 uM cisplatin by Chou-Talalay method; assay type: functional
A549 [10] = assay: Synergistic antiproliferative activity against human A549 cells assessed as cell death at 25 uM incubated for 72 hrs in presence of 6 uM cisplatin by MTT assay (reference value: 46%); assay type: functional
A549 [11] = assay: Synergistic antiproliferative activity against human A549 cells assessed as cell death at 25 uM incubated for 72 hrs in presence of 12 uM cisplatin by MTT assay (reference value: 66%); assay type: functional
A549 [12] = assay: Antiproliferative activity against human A549 cells assessed as cell death at 12.5 uM incubated for 72 hrs by MTT assay relative to control; assay type: functional
A549 [13] = assay: Synergistic antiproliferative activity against human A549 cells assessed as combination index at 1.563 uM incubated for 72 hrs in presence of 12 uM cisplatin by Chou-Talalay method; assay type: functional
A549 [14] = assay: Synergistic antiproliferative activity against human A549 cells assessed as combination index at 3.125 uM incubated for 72 hrs in presence of 6 uM cisplatin by Chou-Talalay method; assay type: functional
A549 [15] = assay: Antiproliferative activity against human A549 cells assessed as cell death at 6.25 uM incubated for 72 hrs by MTT assay relative to control; assay type: functional
[16] = Hemolytic activity against human red blood cells at 100 uM relative to control; assay type: toxicity, cell-based, Erythrocyte; details: red blood cells (erythrocytes), read-out: Activity
A549 [17] = assay: Synergistic antiproliferative activity against human A549 cells assessed as combination index at 25 uM incubated for 72 hrs in presence of 6 uM cisplatin by Chou-Talalay method; assay type: functional
A549 [18] = assay: Downregulation of ABCC1 mRNA level in human A549 cells at 50 uM incubated for 72 hrs by qPCR assay; assay type: functional, cell-based
A549 [19] = assay: Antiproliferative activity against human A549 cells assessed as cell death at 25 uM incubated for 72 hrs by MTT assay relative to control; assay type: functional
A549 [20] = assay: Synergistic antiproliferative activity against human A549 cells assessed as combination index at 6.25 uM incubated for 72 hrs in presence of 6 uM cisplatin by Chou-Talalay method; assay type: functional
A549 [21] = assay: Antiproliferative activity against human A549 cells assessed as cell death at 50 uM incubated for 72 hrs by MTT assay relative to control; assay type: functional
Homo sapiens = species on record: Homo sapiens; assay: Inhibition of human recombinant His-MBP-tagged Nrf2/recombinant His-tagged MafG heterodimer interaction with 5' FAM-labeled ARE at 0.2 uM preincubated for 5 mins with Nrf2 under shaking condition followed by MafG addition for 5 mins further incubated with ARE and measured after 10 mins by fluorescence polarization assay; details: time 20.0 min
A549 [22] = assay: Synergistic antiproliferative activity against human A549 cells assessed as cell death at 3.125 uM incubated for 72 hrs in presence of 6 uM cisplatin by MTT assay (reference value: 46%); assay type: functional
A549 [23] = assay: Synergistic antiproliferative activity against human A549 cells assessed as cell death at 6.25 uM incubated for 72 hrs in presence of 12 uM cisplatin by MTT assay (reference value: 66%); assay type: functional
A549 [24] = assay: Synergistic antiproliferative activity against human A549 cells assessed as cell death at 6.25 uM incubated for 72 hrs in presence of 6 uM cisplatin by MTT assay (reference value: 46%); assay type: functional
A549 [25] = assay: Synergistic antiproliferative activity against human A549 cells assessed as combination index at 1.563 uM incubated for 72 hrs in presence of 6 uM cisplatin by Chou-Talalay method; assay type: functional
A549 [26] = assay: Synergistic antiproliferative activity against human A549 cells assessed as cell death at 3.125 uM incubated for 72 hrs in presence of 12 uM cisplatin by MTT assay (reference value: 66%); assay type: functional
A549 [27] = assay: Synergistic antiproliferative activity against human A549 cells assessed as cell death at 100 uM incubated for 72 hrs in presence of 6 uM cisplatin by MTT assay (reference value: 46%); assay type: functional

Work on `CC[C@H](C)[C@H](NC(C)=O)C(=O)N[C@H](C(=O)N[C@@H](CCC(=O)O)C(=O)N[C@@H](CC(C)C)C(=O)N[C@@H](CCC(=O)O)C(=O)N[C@]1(C)CCC/C=C\CCC[C@](C)(C(=O)N[C@@H](CC(C)C)C(=O)N[C@@H](CCCCN)C(=O)N[C@@H](CC(=O)O)C(=O)N[C@@H](CCC(=O)O)C(=O)N[C@@H](CCCCN)C(=O)N[C@@H](CCC(=O)O)C(N)=O)NC(=O)[C@H](CC(=O)O)NC(=O)[C@H](CC(C)C)NC(=O)[C@H](CC(=O)O)NC1=O)C(C)C` (Ac-IVELE[R5]DLD[R5]LKDEKE-NH2; staple (Z) 6-10) yielded an Activity (A549 [1]) of 67%, an Activity (A549 [2]) of 81% and an Activity (A549 [3]) of 4%. For the same molecule, the Activity (HEK-293T) was “Non-Toxic”, the inhibition [4] was “Active” and the inhibition (NRF2-MAFG (Homo sapiens)) was “Dose-Dependent Effect”. For the same molecule, the CI (A549 [5]) was 0.82, the CI (A549 [6]) was 0.42 and the Stability [7] was “Unstable”. For the same molecule, the CI (A549 [8]) was 0.57, the CI (A549 [9]) was 0.42 and the Activity (A549 [10]) was 68%. For the same molecule, the Activity (A549 [11]) was 87%, the Activity (A549 [12]) was 24% and the CI (A549 [13]) was 0.96. The CI (A549 [14]) was 0.84, the Activity (A549 [15]) was 17% and the hemolysis at 100 µM [16] was 0.3%. The CI (A549 [17]) was 0.51, the Activity (A549 [18]) was “Active” and the Activity (A549 [19]) was 30%. The CI (A549 [20]) was 0.67, the Activity (A549 [21]) was 34% and the inhibition (Homo sapiens) was “Active”. It also gave an Activity (A549 [22]) of 52%, an Activity (A549 [23]) of 79% and an Activity (A549 [24]) of 59%. For the same molecule, the CI (A549 [25]) was 0.89, the Activity (A549 [26]) was 71% and the Activity (A549 [27]) was 76%.
